Patent publication US6605620B1, “Cyclic amine compounds and pharmaceutical composition containing the same” (Kowa Co., Ltd., priority 2001, dated 2003)
Counter-ions that a name gives are not always drawn.

Test system: U937 cells adhered to HUVEC stimulated by TNFα
Test: Inhibitory effect on cell adhesion (U937 adhesion to TNFα-stimulated HUVEC)
Format: cell-based, human
Conditions: Homo sapiens; U937 adhesion to TNFα-stimulated HUVEC; fluorescence (PKH2) readout
Protocol: The test was conducted by reference to the method by Ross et al. (J. Biol. Chem., 267 8537-8543 (1992)). More specifically, after human umbilical venous endothelial cells (HUVEC) were cultured on a 48-well plate to confluent growth, TNFα was added thereto. Upon elapsed time of 5 hours after the addition, U937, which was a human monocytic/histocytic cell fluorescence-labeled with PKH2 (product of Sigma-Aldrich Co., Ltd.), was added in a proportion of 1×10^6 cells per well. After the plate was left at rest at room temperature for 1 hour, unadhered U937 was washed out and lysed in 1% Triton X-100 to measure a remaining fluorescence intensity (excitation wavelength: 480 nm; measuring wavelength: 530 nm). HUVEC and U937 were cultured in EGM-2 (product of Sanko Junyaku K. K.) and 10% FCS-containing RPMI1640, respectively. Each test agent was added to HUVEC upon the addition of TNFα and to U937 24 hours prior to the cell adhesion test. The inhibitory activity was calculated out as IC50 value after inhibitory ratio at each concentration of test compounds was determined. The inhibitory ratio was calculated according to the equation […], wherein A is the number of U937 cells adhered to HUVEC stimulated by TNFα when no test agent was added, B is the number of U937 cells adhered to HUVEC not stimulated by TNFα when no test agent was added, and C is the number of U937 cells adhered to HUVEC stimulated by TNFα when the test agent was added. As control compounds, Test Compound 1 described in Japanese Patent Application Laid-Open No. 9-143075 and dilazep described in Japanese Patent Application Laid-Open No. 11-92382 were simultaneously evaluated.

SMILES | IC50
COc1cc(C(=O)OCCCN2CCCN(CCCOC(=O)c3cc(OC)c(OC)c(OC)c3)CC2)cc(OC)c1OC [Dilazep, dilazep, reference compound] | > 10000 nM
COc1cc(-c2cc(CN3CC[C@H](N(C)Cc4ccnc(-c5cc(OC)c(OC)c(OC)c5)c4)C3)ccn2)cc(OC)c1OC [Example 3, (3S)-3-[N-Methyl-N-[[2-(3,4,5-trimethoxyphenyl)pyridin-4-yl]methyl]amino]-1-[[2-(3,4,5-trimethoxyphenyl)pyridin-yl]methyl]pirrolidine Tertrahydrochloride] | 300 nM
COc1cc(-c2cc(CNC3CCN(Cc4ccnc(-c5cc(OC)c(OC)c(OC)c5)c4)CC3)ccn2)cc(OC)c1OC [Example 5, 1-[[2-(3,4,5-Trimethoxyphenyl)pyridin-4-yl]methyl]-4-[[2-(3,4,5-trimethoxyphenyl)pyridin-4-yl]methylamino]piperidine Difumalate] | 200 nM
COc1cc(-c2cncc(CN(C)C3CCN(Cc4ccnc(-c5cc(OC)c(OC)c(OC)c5)c4)CC3)c2)cc(OC)c1OC [Example 7, 4-[N-Methyl-N-[[5-(3,4,5-trimethoxyphenyl)pyridin-3-yl]methyl]amino]-1-[[2-(3,4,5-trimethoxyphenyl)pyridin-4-yl]methyl]piperidine Difumarate] | 300 nM
COc1ccc(N(Cc2ccnc(-c3cc(OC)c(OC)c(OC)c3)c2)C2CCN(Cc3ccnc(-c4cc(OC)c(OC)c(OC)c4)c3)CC2)cc1 [Example 10, 4-[N-(4-Methoxyphenyl)-N-[[2-(3,4,5-trimethoxypheny)pyridin-4-yl]methyl]amino]-1-[[2-(3,4,5-trimethoxyphenyl)pyridin-4-yl]methyl]piperidine Trihydrochloride] | 40 nM
COc1ccc(N(Cc2cncc(-c3cc(OC)c(OC)c(OC)c3)c2)C2CCN(Cc3ccnc(-c4cc(OC)c(OC)c(OC)c4)c3)CC2)cc1 [Example 13, 4-[N-(4-Methoxyphenyl)-N-[[5-(3,4,5-trimethoxyphenyl)pyridin-3-yl]methyl]amino]-1-[[2-(3,4,5-trimethoxyphenyl)pyridin-4-yl]methyl]piperidine Trihydrochloride] | 30 nM
COc1cc(-c2cc(CN3CCC(N(Cc4ccccc4)Cc4ccnc(-c5cc(OC)c(OC)c(OC)c5)c4)CC3)ccn2)cc(OC)c1OC [Example 16, 4-[N-Benzyl-N-[[2-(3,4,5-trimethoxyphenyl)pyridin-4-yl]methyl]amino]-1-[[2-(3,4,5-trimethoxyphenyl)pyridin-4-yl]methyl]piperidine Tetrahydrochloride] | 300 nM
COc1cc(-c2cncc(CN(Cc3ccccc3)C3CCN(Cc4ccnc(-c5cc(OC)c(OC)c(OC)c5)c4)CC3)c2)cc(OC)c1OC [Example 19, 4-[N-Benzyl-N-[[5-(3,4,5-trimethoxypheny)pyridin-3-yl]methyl]amino]-1-[[2-(3,4,5-trimethoxyphenyl)pyridin-4-yl]methyl]piperidine Tetrahydrochloride] | 300 nM
COc1cc(OC)cc(N(Cc2ccnc(-c3cc(OC)c(OC)c(OC)c3)c2)C2CCN(Cc3ccnc(-c4cc(OC)c(OC)c(OC)c4)c3)CC2)c1 [Example 23, 4-[N-(3,5-Dimethoxyphenyl)-N-[[2-(3,4,5-trimethoxyphenyl)pyridin-4-yl]methyl]amino]-1-[[2-(3,4,5-trimethoxyphenyl)pyridin-4-yl]methyl]piperidine Trihydrochloride] | 30 nM
COc1cc(-c2cc(CN3CCC(N(Cc4ccnc(-c5cc(OC)c(OC)c(OC)c5)c4)c4ccc5c(c4)OCO5)CC3)ccn2)cc(OC)c1OC [Example 29, 4-[N-(3,4-Methylenedioxyphenyl)-N-[[2-(3,4,5-trimethoxyphenyl)pyridin-4-yl]methyl]amino]-1-[[2-(3,4,5-trimethoxyphenyl)pyridin-4-yl]methyl]piperidine Trihydrochloride] | 30 nM
COc1cc(-c2cc(CN3CCC(N(C)Cc4ccnc(-c5cc(OC)c(OC)c(OC)c5)c4)CC3)ccn2)cc(OC)c1OC [Example 36, 4-[N-Methyl-N-[[2-(3,4,5-trimethoxyphenyl)pyridin-4-yl]methyl]amino]-1-[[2-(3,4,5-trimethoxyphenyl)pyridin-4-yl]methyl]piperidine Tetrahydrochloride] | 200 nM
COc1cc(-c2cc(CN3CCC(N(Cc4ccnc(-c5cc(OC)c(OC)c(OC)c5)c4)c4ccccc4)CC3)ccn2)cc(OC)c1OC [Example 42, 4-[N-Phenyl-N-[[2-(3,4,5-trimethoxyphenyl)pyridin-4-yl]methyl]amino]-1-[[2-(3,4,5-trimethoxyphenyl)pyridin-4-yl]methyl]piperidine Trihydrochloride] | 70 nM
COc1ccc(N(Cc2ccnc(-c3cc(OC)c(OC)c(OC)c3)c2)C2CCN(Cc3cncc(-c4cc(OC)c(OC)c(OC)c4)c3)CC2)cc1 [Example 67, 4-[N-(4-Methoxyphenyl)-N-[[2-(3,4,5-trimethoxyphenyl)pyridin-4-yl]methyl]amino]-1-[[3-(3,4,5-trimethoxyphenyl)pyridin-5-yl]methyl]piperidine Trihydrochloride] | 90 nM
COc1cccc(N(Cc2ccnc(-c3cc(OC)c(OC)c(OC)c3)c2)C2CCN(Cc3ccnc(-c4cc(OC)c(OC)c(OC)c4)c3)CC2)c1 [Example 88, 4-[N-(3-Methoxyphenyl)-N-[[2-(3,4,5-trimethoxyphenyl)pyridin-4-yl]methyl]amino]-1-[[2-(3,4,5-trimethoxyphenyl)pyridin-4-yl]methyl]piperidine Trihydrochloride] | 70 nM
COc1cccc(N(Cc2ccnc(-c3cc(OC)c(OC)c(OC)c3)c2)C2CCN(Cc3cncc(-c4cc(OC)c(OC)c(OC)c4)c3)CC2)c1 [Example 89, 4-[N-(3-Methoxyphenyl)-N-[[2-(3,4,5-trimethoxyphenyl)pyridin-4-yl]methyl]amino]-1-[[3-(3,4,5-trimethoxyphenyl)pyridin-5-yl]methyl]piperidine Trihydrochloride] | 90 nM
COc1cc(-c2cc(CN3CCC(N(Cc4ccnc(-c5cc(OC)c(OC)c(OC)c5)c4)c4ccc(SC)cc4)CC3)ccn2)cc(OC)c1OC [Example 111, 1-[[2-(3,4,5-Trimethoxyphenyl)pyridin-4-yl]methyl]-4-[N-[[2-(3,4,5-trimethoxyphenyl)pyridin-4-yl]methyl]-N-(4-methylthiophenyl)amino]piperidine Trihydrochloride] | 80 nM
COc1cc(-c2cc(CN3CCC(N(Cc4ccnc(-c5cc(OC)c(OC)c(OC)c5)c4)c4ccc(F)cc4)CC3)ccn2)cc(OC)c1OC [Example 157, 4-[N-(4-Fluorophenyl)-N-[[2-(3,4,5-trimethoxyphenyl)pyridin-4-yl]methyl]amino]-1-[[2-(3,4,5-trimethoxyphenyl)pyridin-4-yl]methyl]piperidine Trihydrochloride] | 90 nM

Same assay, conditions: examined similar to the Test Example 1 procedure; even at a concentration as high as 10 μM

SMILES | inhibitory effect on cell adhesion (result in words)
c1cc(CNC2CCN(Cc3ccncc3)CC2)ccn1 [Preparation Example 91, 1-(4-Pycolyl)-4-(4-pycolylamino)piperidine Tetrahydrochloride, reference compound] | inactive
